Experimental data reported in ChEMBL document CHEMBL5058564, “EUbOPEN Chemogenomics Library 2 (Incucyte)” (2022).

Columns and labels:
Type in all cases: toxicity, cell-based
[1] = system: Fibroblast; assay: Incucyte cell viability with human fibroblast; details: 10 µM, compound concentration 10 uM
[2] = system: U2OS; assay: Incucyte cell viability with U2OS; details: human, 10 µM, compound concentration 10 uM
[3] = system: HEK-293T; assay: Incucyte cell viability with HEK293T; details: human, 10 µM, compound concentration 10 uM
[4] = 6 h, replicate number 1, timepoint 6 hours
[5] = 6 h, replicate number 2, timepoint 6 hours
[6] = 12 h, replicate number 1, timepoint 12 hours
[7] = 12 h, replicate number 2, timepoint 12 hours
[8] = 18 h, replicate number 1, timepoint 18 hours
[9] = 18 h, replicate number 2, timepoint 18 hours
[10] = 24 h, replicate number 1, timepoint 24 hours
[11] = 24 h, replicate number 2, timepoint 24 hours
[12] = 0 h, replicate number 1, timepoint 0 hours
[13] = 0 h, replicate number 2, timepoint 0 hours
Also: unitless GR value; below 1 slowed growth and below 0 cell loss.

## COc1ccc(NC(=O)c2ccc(-c3ccc(-c4noc(C)n4)cc3C)cc2)cc1OCCN(C)C.Cl
[1]; [4]
  Growth Rate: -0.36
[1]; [5]
  Growth Rate: -0.28
[1]; [6]
  Growth Rate: -0.41
[1]; [7]
  Growth Rate: -0.33
[1]; [8]
  Growth Rate: -0.47
[1]; [9]
  Growth Rate: -0.48
[1]; [10]
  Growth Rate: -0.57
[1]; [11]
  Growth Rate: -0.52
[2]; [12]
  Growth Rate: -0.87
[2]; [13]
  Growth Rate: -1
[2]; [4]
  Growth Rate: -0.71
[2]; [6]
  Growth Rate: -0.36
[2]; [7]
  Growth Rate: 0.51
[2]; [8]
  Growth Rate: -0.17
[2]; [9]
  Growth Rate: 0.28
[2]; [10]
  Growth Rate: -0.18
[2]; [11]
  Growth Rate: 0.14
[3]; [13]
  Growth Rate: -0.89
[3]; [4]
  Growth Rate: -0.88
[3]; [5]
  Growth Rate: -0.73
[3]; [6]
  Growth Rate: -0.65
[3]; [7]
  Growth Rate: -0.38
[3]; [8]
  Growth Rate: -0.53
[3]; [9]
  Growth Rate: -0.31
[3]; [10]
  Growth Rate: -0.45
[3]; [11]
  Growth Rate: -0.35

## CCc1cc2cc(NS(=O)(=O)c3ccc(C#N)cc3)ccc2n(CC)c1=O
[1]; [12]
  Growth Rate: 0.94
[1]; [4]
  Growth Rate: 0.31
[1]; [5]
  Growth Rate: -0.17
[1]; [6]
  Growth Rate: 0.22
[1]; [7]
  Growth Rate: 0.12
[1]; [8]
  Growth Rate: 0.07
[1]; [9]
  Growth Rate: 0.13
[1]; [10]
  Growth Rate: -0.17
[1]; [11]
  Growth Rate: 0.07
[2]; [12]
  Growth Rate: -0.59
[2]; [13]
  Growth Rate: -0.07
[2]; [4]
  Growth Rate: 0.95
[2]; [7]
  Growth Rate: 0.85
[2]; [8]
  Growth Rate: 0.95
[2]; [9]
  Growth Rate: 0.93
[2]; [10]
  Growth Rate: 0.96
[3]; [12]
  Growth Rate: 1
[3]; [13]
  Growth Rate: 0.08
[3]; [4]
  Growth Rate: 0.21
[3]; [6]
  Growth Rate: 0.34
[3]; [7]
  Growth Rate: 0.96
[3]; [8]
  Growth Rate: 0.23
[3]; [9]
  Growth Rate: 0.84
[3]; [10]
  Growth Rate: 0.13
[3]; [11]
  Growth Rate: 0.59

## COc1cc(C(=O)N(CCCc2ccccc2)Cc2ccc(CC(=O)O)cc2)cc(OC)c1C
[1]; [12]
  Growth Rate: -0.55
[1]; [13]
  Growth Rate: 0.01
[2]; [12]
  Growth Rate: -0.86
[2]; [5]
  Growth Rate: 0.79
[2]; [7]
  Growth Rate: 0.94
[2]; [9]
  Growth Rate: 0.97
[2]; [11]
  Growth Rate: 0.96
[3]; [12]
  Growth Rate: 0.55
[3]; [13]
  Growth Rate: 0.84

## O=C1NC(NC23CC4CC(CC(C4)C2)C3)=N/C1=C\c1ccc2ncsc2c1
[1]; [12]
  Growth Rate: -0.85
[1]; [13]
  Growth Rate: 0.36
[2]; [12]
  Growth Rate: -0.86
[2]; [13]
  Growth Rate: -1
[2]; [8]
  Growth Rate: 0.56
[2]; [9]
  Growth Rate: 0.88
[2]; [10]
  Growth Rate: 0.62
[2]; [11]
  Growth Rate: 0.7
[3]; [12]
  Growth Rate: -0.13
[3]; [13]
  Growth Rate: -0.17
[3]; [6]
  Growth Rate: 0.28
[3]; [7]
  Growth Rate: 0.24
[3]; [8]
  Growth Rate: 0.03
[3]; [9]
  Growth Rate: 0.09
[3]; [10]
  Growth Rate: 0.01
[3]; [11]
  Growth Rate: 0.06

## N[C@](CC1c2ccccc2Oc2ccccc21)(C(=O)O)[C@H]1C[C@@H]1C(=O)O
[1]; [12]
  Growth Rate: 0.29
[1]; [5]
  Growth Rate: 0.73
[1]; [7]
  Growth Rate: 0.93
[1]; [8]
  Growth Rate: 0.9
[1]; [9]
  Growth Rate: 0.82
[1]; [10]
  Growth Rate: 0.68
[1]; [11]
  Growth Rate: 0.88
[2]; [13]
  Growth Rate: 0.8
[2]; [7]
  Growth Rate: 0.92
[2]; [8]
  Growth Rate: 0.9
[3]; [12]
  Growth Rate: 0.78
[3]; [13]
  Growth Rate: -1
[3]; [4]
  Growth Rate: 0.42
[3]; [6]
  Growth Rate: 0.5
[3]; [8]
  Growth Rate: 0.57
[3]; [10]
  Growth Rate: 0.69

## O=C(Nc1cc(C(F)(F)F)ccc1N1CCCCC1)c1ccncc1
[1]; [13]
  Growth Rate: 0.62
[1]; [4]
  Growth Rate: -0.18
[1]; [6]
  Growth Rate: 0.52
[1]; [8]
  Growth Rate: 0.65
[1]; [10]
  Growth Rate: 0.59
[1]; [11]
  Growth Rate: 0.83
[2]; [12]
  Growth Rate: -0.22
[2]; [13]
  Growth Rate: 0.81
[2]; [4]
  Growth Rate: 0.54
[2]; [5]
  Growth Rate: 0.75
[2]; [6]
  Growth Rate: 0.85
[2]; [7]
  Growth Rate: 0.76
[2]; [8]
  Growth Rate: 0.87
[2]; [9]
  Growth Rate: 0.99
[2]; [10]
  Growth Rate: 0.81
[3]; [12]
  Growth Rate: 0.08
[3]; [13]
  Growth Rate: 0.52
[3]; [7]
  Growth Rate: 0.9
[3]; [11]
  Growth Rate: 0.95

## CCNC(=O)[C@H]1O[C@@H](n2cnc3c(N)ncnc32)[C@H](O)[C@@H]1O.O
[1]; [12]
  Growth Rate: -0.1
[1]; [13]
  Growth Rate: 0.3
[1]; [5]
  Growth Rate: 0.46
[1]; [7]
  Growth Rate: 0.87
[2]; [12]
  Growth Rate: -0.43
[2]; [4]
  Growth Rate: 0.86
[2]; [6]
  Growth Rate: 0.61
[2]; [8]
  Growth Rate: 0.71
[2]; [10]
  Growth Rate: 0.74
[3]; [12]
  Growth Rate: -0.1
[3]; [13]
  Growth Rate: -0.27
[3]; [4]
  Growth Rate: 0.74
[3]; [6]
  Growth Rate: 0.85
[3]; [8]
  Growth Rate: 0.8
[3]; [10]
  Growth Rate: 0.76
[3]; [11]
  Growth Rate: 0.81

## Nc1cnc(N2CCc3cc(S(=O)(=O)Nc4c(F)cc(Cl)cc4F)cc(N4CCCC4=O)c32)nc1 [TP-020n]
[1]; [12]
  Growth Rate: 0.01
[1]; [13]
  Growth Rate: -0.22
[1]; [10]
  Growth Rate: 0.92
[2]; [12]
  Growth Rate: -0.04
[2]; [4]
  Growth Rate: 0.53
[2]; [6]
  Growth Rate: 0.72
[2]; [8]
  Growth Rate: 0.65
[2]; [10]
  Growth Rate: 0.66
[3]; [12]
  Growth Rate: 0.54
[3]; [13]
  Growth Rate: 0.76
[3]; [4]
  Growth Rate: 0.61
[3]; [6]
  Growth Rate: 0.37
[3]; [7]
  Growth Rate: 0.71
[3]; [8]
  Growth Rate: 0.61
[3]; [9]
  Growth Rate: 0.9
[3]; [10]
  Growth Rate: 0.74
[3]; [11]
  Growth Rate: 0.77

## OCCN1CCN(CCCN2c3ccccc3Sc3ccc(Cl)cc32)CC1 [PERPHENAZINE]
[1]; [4]
  Growth Rate: -0.61
[1]; [5]
  Growth Rate: 0.55
[1]; [6]
  Growth Rate: -0.48
[1]; [7]
  Growth Rate: 0.42
[1]; [8]
  Growth Rate: -0.34
[1]; [9]
  Growth Rate: 0.44
[1]; [10]
  Growth Rate: -0.08
[1]; [11]
  Growth Rate: 0.53
[2]; [5]
  Growth Rate: 0.28
[2]; [6]
  Growth Rate: 0.85
[2]; [7]
  Growth Rate: 0.55
[2]; [9]
  Growth Rate: 0.64
[2]; [10]
  Growth Rate: 1
[2]; [11]
  Growth Rate: 0.69
[3]; [4]
  Growth Rate: 0.12
[3]; [5]
  Growth Rate: 0.25
[3]; [6]
  Growth Rate: 0.59
[3]; [7]
  Growth Rate: 0.45
[3]; [8]
  Growth Rate: 0.76
[3]; [9]
  Growth Rate: 0.67
[3]; [10]
  Growth Rate: 0.41
[3]; [11]
  Growth Rate: 0.76

## CCCCCCCCCCCCCCC[C@@H](O)[C@@H](N)COP(=O)(O)O
[1]; [13]
  Growth Rate: 0.12
[1]; [4]
  Growth Rate: -0.14
[1]; [5]
  Growth Rate: 0.42
[1]; [6]
  Growth Rate: 0.44
[1]; [7]
  Growth Rate: 0.66
[1]; [8]
  Growth Rate: 0.43
[1]; [9]
  Growth Rate: 0.7
[1]; [10]
  Growth Rate: 0.23
[1]; [11]
  Growth Rate: 0.73
[2]; [6]
  Growth Rate: 0.64
[3]; [13]
  Growth Rate: 0.71
[3]; [4]
  Growth Rate: 0.25
[3]; [6]
  Growth Rate: 0.48
[3]; [7]
  Growth Rate: 0.76
[3]; [8]
  Growth Rate: 0.51
[3]; [9]
  Growth Rate: 0.88
[3]; [10]
  Growth Rate: 0.63
[3]; [11]
  Growth Rate: 0.74

## CCCCC(=O)N(Cc1ccc(-c2ccccc2-c2nnn[nH]2)cc1)[C@H](C(=O)O)C(C)C
[1]; [13]
  Growth Rate: 0.94
[1]; [5]
  Growth Rate: 0.44
[1]; [7]
  Growth Rate: 0.96
[2]; [13]
  Growth Rate: -0.99
[2]; [4]
  Growth Rate: 0.76
[2]; [7]
  Growth Rate: 0.99
[2]; [9]
  Growth Rate: 0.92
[3]; [13]
  Growth Rate: 0.85
[3]; [4]
  Growth Rate: 0.44
[3]; [5]
  Growth Rate: 0.43
[3]; [6]
  Growth Rate: 0.75
[3]; [7]
  Growth Rate: 0.94
[3]; [8]
  Growth Rate: 0.6
[3]; [10]
  Growth Rate: 0.8

## Cc1cccc(NC(=O)CN2CCC(c3ccccn3)CC2)c1.Cl.Cl
[1]; [13]
  Growth Rate: 0.72
[1]; [4]
  Growth Rate: 0.02
[1]; [6]
  Growth Rate: 0.19
[1]; [8]
  Growth Rate: 0.48
[1]; [10]
  Growth Rate: 0.77
[2]; [13]
  Growth Rate: -1
[3]; [4]
  Growth Rate: 0.47
[3]; [5]
  Growth Rate: 0.66
[3]; [6]
  Growth Rate: 0.79
[3]; [7]
  Growth Rate: 0.97
[3]; [9]
  Growth Rate: 0.98

## CO[C@H]1CC[C@@H](C(=O)c2ccc3nc4c(cc3c2)CCCO4)CC1
[1]; [12]
  Growth Rate: 0.96
[1]; [5]
  Growth Rate: 0.07
[1]; [7]
  Growth Rate: 0.87
[1]; [8]
  Growth Rate: 0.79
[1]; [10]
  Growth Rate: 0.48
[2]; [4]
  Growth Rate: -0.12
[2]; [5]
  Growth Rate: 0.55
[2]; [6]
  Growth Rate: 0.27
[2]; [7]
  Growth Rate: 0.67
[2]; [8]
  Growth Rate: 0.36
[2]; [9]
  Growth Rate: 0.74
[2]; [10]
  Growth Rate: 0.74
[2]; [11]
  Growth Rate: 0.78
[3]; [4]
  Growth Rate: 0.72
[3]; [6]
  Growth Rate: 0.84
[3]; [8]
  Growth Rate: 0.59
[3]; [10]
  Growth Rate: 0.73

## CCCCCCCCCCCCC/C=C/[C@@H](O)[C@@H](N)COP(=O)([O-])OCC[N+](C)(C)C [SPHINGOSYLPHOSPHORYLCHLOLINE]
[1]; [4]
  Growth Rate: -0.36
[1]; [5]
  Growth Rate: -0.69
[1]; [6]
  Growth Rate: -0.22
[1]; [7]
  Growth Rate: -0.25
[1]; [8]
  Growth Rate: -0.17
[1]; [9]
  Growth Rate: 0.1
[1]; [10]
  Growth Rate: 0.17
[1]; [11]
  Growth Rate: 0.07
[2]; [4]
  Growth Rate: 0.97
[2]; [7]
  Growth Rate: 0.91
[2]; [9]
  Growth Rate: 0.8
[2]; [10]
  Growth Rate: 0.9
[2]; [11]
  Growth Rate: 0.88
[3]; [4]
  Growth Rate: -0.01
[3]; [5]
  Growth Rate: -0.35
[3]; [6]
  Growth Rate: 0.28
[3]; [7]
  Growth Rate: -0.08
[3]; [8]
  Growth Rate: 0.46
[3]; [9]
  Growth Rate: 0.29
[3]; [10]
  Growth Rate: 0.43
[3]; [11]
  Growth Rate: 0.54
